Measurements taken from patent US20240336627A1, “NOVEL COMPOUNDS FOR THE DIAGNOSIS OF TDP-43 PROTEINOPATHIES” (AC IMMUNE SA, priority 2021, published 2024).
“Also recorded” adds a separate entry of the source. Like-named read-outs stand apart in the source and are kept apart here. Marks after values point to notes of the source that are not given here.

How the values were obtained:
[1] = target: T1, Human brain derived TDP-43 aggregates (Homo sapiens, UniProt Q13148); experiment: Micro-radiobinding competition assay on human FTD sarkosyl-insoluble brain extracts; assay type: binding; conditions: for Human brain derived TDP-43 aggregates Mean % competition at 250 nM: 250 nM test compound; for Human brain derived TDP-43 aggregates Mean % competition at 2 μM: 2 μM test compound; for Ki: 0.24 nM to 2 μM test compound
T1 construct: A sample of brain tissue (frontal or temporal cortex) was homogenized; from tissue; host or cells: sarkosyl-insoluble fraction of human FTD brain (frontal or temporal cortex)
T1 sequence (Q13148 whole entry): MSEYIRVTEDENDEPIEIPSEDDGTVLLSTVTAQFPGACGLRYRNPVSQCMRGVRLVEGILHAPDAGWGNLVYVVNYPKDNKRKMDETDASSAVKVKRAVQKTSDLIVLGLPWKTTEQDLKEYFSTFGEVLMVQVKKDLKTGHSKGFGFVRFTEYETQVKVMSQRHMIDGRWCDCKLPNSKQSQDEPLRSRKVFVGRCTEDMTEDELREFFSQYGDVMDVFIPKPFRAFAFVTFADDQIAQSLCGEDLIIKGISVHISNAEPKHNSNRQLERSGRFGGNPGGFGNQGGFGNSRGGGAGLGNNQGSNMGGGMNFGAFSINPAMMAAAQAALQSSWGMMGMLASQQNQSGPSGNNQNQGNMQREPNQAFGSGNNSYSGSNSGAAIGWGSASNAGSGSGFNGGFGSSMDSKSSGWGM
Method: Human brain extracts were prepared as described in Laferriere et al., 2019, Nature Neurosc. A sample of brain tissue (frontal or temporal cortex) was homogenized at 1:4 (w/v) ratio in the homogenization-solubilization (HS) buffer at 4° C. using tissue homogenizer (Precellys) with CKmix homogenization tubes. The following sequence was used for homogenization: 3 cycles of 30 seconds at 5000 rpm (with 15 seconds pause between each cycle). Homogenized samples were aliquoted and stored at −80° C. in 1.5 mL low protein binding tubes.
Brain homogenates were thawed on ice and resuspended in HS buffer to obtain a final concentration of 2% sarkosyl, 1 unit/μL Benzonase and 1 mM MgCl2. The samples were then incubated at 37° C. under constant shaking at 600 rpm on a thermomixer for 45 minutes (min). The supernatants were collected in a new tube (sarkosyl-soluble fraction, S1). The pellet was resuspended in 1000 μL of myelin floatation buffer and centrifuged at 20,000 g for 60 min at 4° C. The supernatant was carefully removed to remove all the floating lipids. This step was repeated if all the lipids could not be removed in a single step. The pellet was subsequently washed with Phosphate-Buffered Saline (PBS) and centrifuged for 30 min at 20,000 g at 4° C. The final pellet was resuspended in 200 μL PBS and stored at −80° C. (sarkosyl-insoluble fraction). The samples were analyzed by immunoblotting in denaturing conditions.
Human FTD sarkosyl-insoluble brain extracts were spotted onto microarray slides. The slides were incubated with [^3H]-Compound 52 or [^3H]-Compound 16 ligands at 75 nM or 40 nM, respectively, and the example compounds (non-radiolabelled) at 2 μM and 250 nM. In some cases, the non-radiolabelled example compounds were further assessed for a range of different concentrations, varying from 0.24 nM to 2 μM for determination of the inhibition constant (Ki). After incubation, slides were washed and scanned by a real-time autoradiography system (BeaQuant, ai4R). Quantification of the signal was performed by using the Beamage image analysis software (ai4R). Non-specific signal was determined with an excess of non-radiolabelled compound 52 or compound 16 (2 μM) and specific binding was calculated by subtracting the non-specific signal from the total signal. Competition was calculated as percent, where 0% was defined as the specific binding in the presence of vehicle and 100% as the values obtained in the presence of excess of the non-radiolabelled compound 52 or compound 16. Ki values were calculated in GraphPad Prism7 by applying a nonlinear regression curve fit using a one site, specific binding model. Measurements were performed with at least two technical replicates in the two-concentration competition experiment and with one technical replicate in the experiments including a range of concentrations. For compounds tested in more than one experiment, the mean of the replicates or Ki values in independent experiments is reported.

[2] = target: T2, pTDP-43 aggregates in FTLD-TDP brain sections (Homo sapiens, UniProt Q13148); experiment: Micro-autoradiography staining in brain sections from patients with FTD; assay type: binding; conditions: 60 nM radioligand, frontal cortex brain sections from FTLD-TDP donors
T2 construct: from tissue; host or cells: frozen post-mortem human brain sections from FTLD-TDP donors
T2 sequence (Q13148 whole entry): as above
Method: All tissues were collected from donors for or from whom a written informed consent for a brain autopsy and the use of the material and clinical information for research purposes had been obtained by the respective brain banks. All samples were anonymized and coded. Frozen brain tissue blocks with confirmed TDP-43 pathology upon autopsy were processed using a cryotome to generate sections of 10 μm in thickness and mounted on glass slides. Sections were kept at −80° C. until use.
Brain sections were immunostained using a commercially available antibody, specific for phosphorylated serine at amino acid 409/410 (anti-pTDP-43 pS409/410, Cosmobio, TIP-PTD-P02). Sections were fixed for 15 minutes at 4° C. with 4% formaldehyde (Sigma, 252549) and washed three times for five minutes with 1×PBS (Dulbecco's phosphate buffered saline, Sigma D1408) at room temperature. Next, sections were saturated and permeabilized in blocking buffer (PBS, 10% normal goat serum (NGS), 0.25% Triton X-100) for one hour at room temperature and incubated overnight at 4° C. with primary antibody against pTDP-43 (diluted at 1/250 in PBS, 5% NGS, 0.25% Triton X-100). The following day, sections were washed three times for five minutes with 1×PBS before incubation with a secondary, AlexaFluor647-labeled goat-anti-rabbit antibody (Abcam, ab150079, diluted at 1/500 in PBS) for 45 minutes at room temperature. […]

[3] = target: T3, recombinant flag-tagged TDP-43 aggregates (Homo sapiens, UniProt Q13148); experiment: Kd determination on recombinant TDP-43 aggregates with filter-binding assay
T3 construct: FLAG
T3 sequence (Q13148 whole entry): as above
Method: The TDP-43 aggregation protocol (Shimonaka et al., 2016) was implemented to generate TDP-43 aggregates. The protein preparation of high purity without any degradation was used for the aggregation procedure.
2.1 Kd Determination on Recombinant TDP-43 Aggregates with Filter-Binding Assay of [^3H]-Compound 1
Recombinant flag-tagged TDP-43 aggregates (1.3 μM) were incubated in the presence of [^3H]-Compound 1 with increasing concentrations of radioligand from 0 to 150 nM in a total reaction volume of 100 μL, for two hours at room temperature. 45 μL of sample (corresponding to each concentration) in duplicate was filtered under vacuum on a UniFilter-96 GF/C plate. The filters were washed 5 times with ice-cold buffer (50 mM Tris pH 7.4) and then dried overnight. 30 μL scintillation liquid was added in each well for 30 minutes before quantifying the signal on a Microbeta Trilux device (Perkin Elmer). The non-specific signal was determined with an excess of unlabeled Compound 1 (10 μM) and the specific binding was calculated by subtracting the non-specific signal from the total signal.

[4] = radioligand [3H]-Compound 16 (40 nM)
[5] = radioligand [3H]-Compound 52 (75 nM)

Structure (SMILES) | Human brain derived TDP-43 aggregates Mean % competition at 250 nM [1, 4] | Human brain derived TDP-43 aggregates Mean % competition at 2 μM [1, 4] | Human brain derived TDP-43 aggregates Mean % competition at 250 nM [1, 5] | Human brain derived TDP-43 aggregates Mean % competition at 2 μM [1, 5] | Ki [1, 5] [nM] | further results
N#Cc1c(N)cccc1N1CCc2nc(-c3cnc(N4CC[C@H](F)C4)cn3)sc2C1=O [Example 41] | 47.2^c % | 67.7^c % |  |  |  | 
Nc1cc(N2CCc3nc(-c4cnc(N5CCCC5)nc4)sc3C2=O)ccc1F [Example 42] |  |  | 43.8ª % | 79.6ª % |  | 
Nc1ccc(N2CCc3nc(-c4cnc(N5CCCC5)nc4)sc3C2=O)cc1F [Example 43] |  |  | 45.0ª % | 69.4ª % |  | 
Cn1cc(N2CCc3nc(-c4cnc(N5CCC[C@H](F)C5)nc4)sc3C2=O)cn1 [Example 45] |  |  | 47.0ª % | 64.3ª % |  | 
Nc1cc(N2CCc3nc(-c4cnc(N5CC[C@@H](F)C5)nc4)sc3C2=O)ccc1F [Example 46] |  |  | 62.5ª % | 85.9ª % | 93 | 
Nc1cccc(N2CCc3nc(-c4cnc(N5CC[C@H](F)C5)nc4)sc3C2=O)c1F [Example 47] |  |  | 50.2ª % | 81.7ª % | 152 | 
Nc1cccc(N2CCc3nc(-c4cnc(N5CCC[C@H](F)C5)nc4)sc3C2=O)c1F [Example 48] |  |  | 46.9ª % | 77.9ª % | 73.6 | 
Nc1cc(N2CCc3nc(-c4cnc(N5CCC(F)CC5)nc4)sc3C2=O)ccc1F [Example 49] | 63.1^c % | 65.5^c % |  |  |  | Ki [1, 4]: 117 nM
Nc1cccc(N2CCc3nc(-c4cnc(N5CCC[C@@H](F)C5)nc4)sc3C2=O)c1F [Example 50] | 52.8^c % | 63.4^c % |  |  |  | 
Cn1cc(N2CCc3nc(-c4ccc(N5CC[C@@H](F)C5)nc4)sc3C2=O)cn1 [[^3H]-Compound 1, (R)-2-(6-(3-fluoropyrrolidin-1-yl)pyridin-3-yl)-5-(1-methyl-1H-pyrazol-4-yl)-6,7-dihydrothiazolo[5,4-c]pyridin-4(5H)-one] |  |  |  |  |  | micro-autoradiography signal (silver grains) co-localization with pTDP-43 antibody staining [2]: Accumulation of silver grains on pTDP-43 aggregates; also recorded: showed co-localization with pTDP-43 aggregates; Kd ([3]; data from three independent experiments, read-out: average Kd): 18.4 ± 4 nM; Kd ([3]; filter-binding assay, tritiated radioligand 0 to 150 nM, one-site specific binding model (FIG. 1), read-out: Kd value on recombinant flag-tagged TDP-43 aggregates): 15 nM; specific binding to recombinant TDP-43 aggregates ([3]; filter-binding assay, non-specific signal subtracted): high specific binding
